The source of these data is US20250346643A1, “TROPOMYOSIN KINASE RECEPTOR (TRK) LIGANDS AS THERAPEUTICS TO SUPPORT LIVER REGENERATION” (Vanderbilt University, priority 2024, published 2025).

One assay deals with CCND1 and PCNA. Nature of the assay: Immunoblotting of mpPHH for CCND1 and PCNA. In kind it is cell-based, human. To be noted: mpPHHs, NTF3. The protocol:
Mouse passaged primary human hepatocytes. Mouse-passaged primary human hepatocytes (mpPHHs) were collected as previously described (Michailidis et al., Proc Natl Acad Sci USA. 2020; 117(3): 1678-1688) and cultured in hepatocyte culture media (CC-3198, Lonza, Basel, Switzerland) in collagen-coated chamber slides. Three days before treatment, mpPHH were incubated in William's E media (with L-glutamine). […] 5-15 images per treatment per experiment were randomly taken and EdU positive nuclei quantified.
Immunoblotting. […] Protein concentration of supernatants was determined by Direct Detect Spectrophotometer (MilliporeSigma, Burlington, MA). […] The protein concentration of supernatants was determined by a Direct Detect® spectrophotometer (MilliporeSigma, Burlington, MA). For immunoblot analysis, 10 to 50 μg of protein diluted in […] sample buffer (Invitrogen, Waltham, MA) were analyzed per SDS-polyacrylamide gel electrophoresis (NuPAGE™, Invitrogen, Waltham, MA) using Mops buffer or MES buffer (Invitrogen, Waltham, MA). […] Semi-quantitative band densitometry was performed using ImageJ software (version 1.53).
In general terms: In western blotting, separated proteins are transferred to a membrane and probed.

Another assay relates to HepG2 cells. Nature of the assay: Cell proliferation assay (CellTiter-Glo) in HepG2 cells. The format is cell-based, human. As to conditions: NTF3 20 ng/ml, HepG2 (FIG. 8G-H). The protocol:
Cell lines. Human HepG2 (ATCC HB-8065) were maintained in MEM media with 10% FBS and the mouse hepatocyte cell line AML12 (ATCC, Manassas, VA; CRL-2254) in DMEM/F12 media supplemented with dexamethasone (40 ng/ml) and Insulin-Transferrin-Selenium (Gibco, Waltham, MA; 41400045), containing 10% FBS and 1% penicillin and streptomycin. JS1 (RRID: CVCL_C7PL), LX2 (RRID: CVCL_5792, MilliporeSigma, Burlington, MA; SCC064) and TWNT4 (RRID: CVCL_W296) cells were cultured in DMEM supplemented with 10% FBS. 293T cells (ATCC, Manassas, VA; CRL-3216) were cultured in DMEM supplemented with 10% FBS.
Cell proliferation assays. Primary mouse hepatocytes, HepG2 or AML 12 cells were grown in opaque-walled 96-well plates. NTF3 (final concentration 20 ng/ml) (STEMCELL Technologies, Vancouver, Canada; cat. 78074) and/or Loxo-195 (final concentration 5 nM) (Selleckchem, Houston, TX; S8636) were added into complete growth media without L-glutamine. Primary mouse hepatocytes were also grown in serum-free William's E media without supplements. Cells were analyzed by CellTiter-Glo® (Promega G7570, Madison, WI) which detects the number of viable cells on day 0 to day 5 by on detection systems GloMax® (Promega) or Bioteck Synergy H1 (Agilent, Santa Clara, CA). Mouse recombinant HGF (Abcam, Cambridge, UK; ab281797) was added to cell culture media at a final concentration 5 ng/ml. […]

As for “NTF3: neurotrophin-3, recombinant protein; HSC-derived hepatocyte mitogen, ligand of TRKA, TRKB, TRKC”, the “CCND1 and PCNA (immunoblotting)” value with CCND1 and PCNA was “induced CCND1 and PCNA”. Moreover, the cell proliferation entry in the assay on HepG2 cells is recorded as “greatly stimulated cell proliferation”.
